Experimental data as given in US10888547B2, “Amorphous and a crystalline form of genz 112638 hemitartrate as inhibitor of glucosylceramide synthase” (Genzyme Corporation, priority 2009, dated 2021).

How the values were obtained:
[1] = molecular target: glycogen debranching enzyme (α-1,6-glucosidase) (Homo sapiens, UniProt P35573); assay: Glycogen debranching enzyme cell free assay; format: biochemical
Experimental: The specificity of Formula (I) Hemitartrate was evaluated in a series of in vitro cell-based and cell-free assays. The intestinal glycosidase enzymes were assayed in rat tissue homogenates (see U. Andersson, et al., Biochem. Pharm. 59 (2000) 821-829, the entire teachings of which are incorporated herein by reference), and the glycogen debranching enzyme was assayed in a cell free assay as described (see U. Andersson, et al., Biochem. Pharm. 67 (2004) 697-705, the entire teachings of which are incorporated herein by reference).

[2] = molecular target: T1, Non-lysosomal glucosylceramidase (GBA2) (Homo sapiens, UniProt Q9HCG7); assay: Non-lysosomal glucosylceramidase in intact human cells, C6-NBD-glucosylceramide substrate; format: cell-based; conditions: read-out: Enzyme specificities, IC50: Non-lysosomal glucosylceramidase (GBA2)
T1 construct: were assayed in intact human cells using C6-NBD-glucosylceramide as substrate; endogenous in cells
T1 sequence (Q9HCG7 1-927): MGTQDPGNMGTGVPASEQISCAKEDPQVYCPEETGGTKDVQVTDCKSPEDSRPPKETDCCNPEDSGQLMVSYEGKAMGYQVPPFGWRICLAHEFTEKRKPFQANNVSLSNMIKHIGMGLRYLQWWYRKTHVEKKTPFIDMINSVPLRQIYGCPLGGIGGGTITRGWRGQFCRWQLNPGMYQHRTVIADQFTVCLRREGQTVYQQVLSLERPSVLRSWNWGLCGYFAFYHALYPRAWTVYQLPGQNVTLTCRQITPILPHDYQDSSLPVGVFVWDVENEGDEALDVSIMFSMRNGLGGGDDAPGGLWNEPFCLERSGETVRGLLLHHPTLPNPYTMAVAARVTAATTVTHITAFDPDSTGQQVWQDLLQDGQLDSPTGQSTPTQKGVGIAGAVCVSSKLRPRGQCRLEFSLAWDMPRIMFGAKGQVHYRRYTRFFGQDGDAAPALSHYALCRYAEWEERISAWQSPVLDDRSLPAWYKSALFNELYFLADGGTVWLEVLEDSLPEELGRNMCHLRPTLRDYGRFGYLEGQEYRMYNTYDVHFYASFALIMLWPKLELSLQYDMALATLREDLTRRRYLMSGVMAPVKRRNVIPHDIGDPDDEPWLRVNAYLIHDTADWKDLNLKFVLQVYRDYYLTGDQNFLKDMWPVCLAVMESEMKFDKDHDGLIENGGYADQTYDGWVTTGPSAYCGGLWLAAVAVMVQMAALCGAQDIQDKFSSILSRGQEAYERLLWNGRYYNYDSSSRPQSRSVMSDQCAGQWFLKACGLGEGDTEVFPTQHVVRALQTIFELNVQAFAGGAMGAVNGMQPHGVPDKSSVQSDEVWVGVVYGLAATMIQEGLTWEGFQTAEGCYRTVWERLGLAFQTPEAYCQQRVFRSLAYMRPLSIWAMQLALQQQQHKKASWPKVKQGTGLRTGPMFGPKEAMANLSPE
Experimental: (§1) Non-lysosomal glucosylceramidase and lysosomal glucocerebrosidase were assayed in intact human cells using C6-NBD-glucosylceramide as substrate (see H. S. Overkleeft, et al. J. Biol. Chem. 273 (1998) 26522-26527, the entire teachings of which are incorporated herein by reference). Conduritol β epoxide (a specific inhibitor of lysosomal glucocerebrosidase) was used to differentiate lysosomal versus the non-lysosomal activity. Glucocerebrosidase activity was also measured by fluorescence-activated cell sorting (FACS). […] Cells were immediately chilled on ice and the fluorescence quantitated is above.

[3] = molecular target: T2, Lysosomal glucocerebrosidase (GBA1) (Homo sapiens, UniProt P04062); assay: Lysosomal glucocerebrosidase in intact human cells / FACS in K562 cells; format: cell-based
T2 construct: endogenous in cells; K562 cells for the FACS assay
T2 sequence (P04062 40-536): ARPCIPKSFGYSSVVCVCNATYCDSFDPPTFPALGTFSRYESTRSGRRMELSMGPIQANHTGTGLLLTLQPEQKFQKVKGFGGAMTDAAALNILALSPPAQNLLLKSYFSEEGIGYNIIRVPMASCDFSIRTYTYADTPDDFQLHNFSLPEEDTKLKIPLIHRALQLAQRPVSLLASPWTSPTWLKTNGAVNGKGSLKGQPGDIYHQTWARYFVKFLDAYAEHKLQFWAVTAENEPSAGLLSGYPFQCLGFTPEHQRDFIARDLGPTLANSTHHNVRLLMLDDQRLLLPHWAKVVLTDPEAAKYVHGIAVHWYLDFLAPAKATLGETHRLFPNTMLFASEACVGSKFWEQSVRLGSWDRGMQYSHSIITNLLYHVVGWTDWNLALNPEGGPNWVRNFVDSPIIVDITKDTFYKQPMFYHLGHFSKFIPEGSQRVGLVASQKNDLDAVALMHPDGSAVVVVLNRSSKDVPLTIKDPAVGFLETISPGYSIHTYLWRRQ
Experimental: as §1

Aqueous solubility = format: physicochemical; conditions: in water
[4] = Hygroscopicity of salts and free base; format: physicochemical
D409V/null mice = assay: Oral gavage efficacy study in Gaucher D409V/null mice; format: in vivo, mouse
[5] = system: Gaucher disease type 1 (GD1) patients; assay: Phase 2 clinical trial in adults with Gaucher disease type 1; format: in vivo, human; conditions: 50 or 100 mg bid orally
Experimental: Patients were to have splenomegaly (volume […]) and either thrombocytopenia (platelets 45,000-100,000/mm^3) or anemia (hemoglobin 8-10 g/dl, female; 8-11 g/dl, male). None received enzyme replacement or substrate reduction therapy in the prior 12 months. The composite primary efficacy endpoint is […] (+0.5 g/dl) or platelet count (+15%) after 52 weeks of treatment. Liver volume, chitotriosidase, glucosylceramide are also assessed. Patients continue to be treated and monitored long-term.

[6] = both, human, in vivo
Text: This was an open-label, fixed-sequence study in 36 healthy subjects (17 males and 19 females).

[7] = mouse, in vivo, po, 150 mg/kg/day

Chain of glycogen debranching enzyme (α-1,6-glucosidase) (P35573 whole entry, species assumed): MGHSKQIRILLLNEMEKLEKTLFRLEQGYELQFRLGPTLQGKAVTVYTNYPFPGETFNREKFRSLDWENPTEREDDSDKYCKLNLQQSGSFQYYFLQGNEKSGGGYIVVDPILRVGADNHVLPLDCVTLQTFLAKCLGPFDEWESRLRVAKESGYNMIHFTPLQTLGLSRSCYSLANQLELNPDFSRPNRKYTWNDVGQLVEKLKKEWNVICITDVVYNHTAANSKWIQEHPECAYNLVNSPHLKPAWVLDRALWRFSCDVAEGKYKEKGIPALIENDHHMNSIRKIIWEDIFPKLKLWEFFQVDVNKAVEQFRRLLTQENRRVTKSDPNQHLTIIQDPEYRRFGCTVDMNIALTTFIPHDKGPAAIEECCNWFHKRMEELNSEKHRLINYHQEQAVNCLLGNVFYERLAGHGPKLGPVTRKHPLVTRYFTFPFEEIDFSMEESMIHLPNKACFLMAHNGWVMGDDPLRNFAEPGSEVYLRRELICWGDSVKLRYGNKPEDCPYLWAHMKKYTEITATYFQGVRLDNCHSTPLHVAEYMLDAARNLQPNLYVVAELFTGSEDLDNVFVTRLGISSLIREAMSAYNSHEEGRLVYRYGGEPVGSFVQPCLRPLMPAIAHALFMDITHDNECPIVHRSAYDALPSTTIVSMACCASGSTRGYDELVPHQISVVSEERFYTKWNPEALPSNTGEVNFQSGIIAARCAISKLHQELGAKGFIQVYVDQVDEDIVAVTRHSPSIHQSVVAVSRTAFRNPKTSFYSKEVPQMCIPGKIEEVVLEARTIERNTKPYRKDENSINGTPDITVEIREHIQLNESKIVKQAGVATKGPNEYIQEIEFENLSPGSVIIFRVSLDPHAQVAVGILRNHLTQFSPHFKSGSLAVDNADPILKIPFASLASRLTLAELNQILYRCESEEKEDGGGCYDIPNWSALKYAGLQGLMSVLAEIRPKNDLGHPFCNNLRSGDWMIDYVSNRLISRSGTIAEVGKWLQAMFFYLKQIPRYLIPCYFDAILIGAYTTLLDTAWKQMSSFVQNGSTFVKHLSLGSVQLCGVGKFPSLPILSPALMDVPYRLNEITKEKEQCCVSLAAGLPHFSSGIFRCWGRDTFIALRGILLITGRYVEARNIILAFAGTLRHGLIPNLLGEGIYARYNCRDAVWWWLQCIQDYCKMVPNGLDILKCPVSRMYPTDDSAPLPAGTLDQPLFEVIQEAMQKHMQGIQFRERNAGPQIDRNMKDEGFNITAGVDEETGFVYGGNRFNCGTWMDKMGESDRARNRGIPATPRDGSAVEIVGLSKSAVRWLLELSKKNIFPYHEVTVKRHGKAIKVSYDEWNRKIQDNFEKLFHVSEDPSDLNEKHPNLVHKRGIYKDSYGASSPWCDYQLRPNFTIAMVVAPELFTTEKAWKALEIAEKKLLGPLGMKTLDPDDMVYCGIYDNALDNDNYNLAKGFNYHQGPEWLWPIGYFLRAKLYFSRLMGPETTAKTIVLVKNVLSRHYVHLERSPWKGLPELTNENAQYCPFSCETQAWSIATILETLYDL

SMILES: CCCCCCCC(=O)N[C@H](CN1CCCC1)[C@H](O)c1ccc2c(c1)OCCO2 [Formula (I) Hemitartrate]
- inhibition of cytosolic debranching enzyme (α-1,6-glucosidase) ([1]; concentrations up to 2500 μM): No detectable inhibition
- IC50 ([1]; read-out: Enzyme specificities, IC50: Glycogen debranching enzyme): > 2500 µM
- IC50 [2]: 1600 µM
- inhibition of glucocerebrosidase activity ([3]; at the effective dose): no measurable inhibition
- IC50 ([3]; read-out: Enzyme specificities, IC50: Lysosomal glucocerebrosidase (GBA1)): > 2500 µM
- inhibition of lysosomal glucocerebrosidase ([3]; up to the highest concentration of 2500 μM): no inhibition
- Aqueous solubility (Aqueous solubility): >216 mg/mL
- Aqueous solubility (Aqueous solubility; listed as Formula I Hemitartrate): over 300 mg/mL
- Hygroscopicity (40° C./75% RH) ([4]; 40° C./75% RH): None
- hygroscopicity of the solid salt ([4]; salt screen, Example 1, listed as hemitartrate (1 salt: 2 Formula I)): non-hygroscopic
- gastro-intestinal issues (D409V/null mice; effective dose of 150 mg/kg/day): no observable gastro-intestinal issues
- glucosylceramide levels versus age-matched vehicle-treated controls (D409V/null mice; mouse, in vivo): dose-dependent reduction
- body weight versus untreated mice (D409V/null mice; [7]): no significant deviation
- effects on well-being or feeding habits (D409V/null mice; [7]): no notable effects
- frequency of Gaucher cells in the liver versus untreated mice (D409V/null mice; [7]): significantly lower
- glucosylceramide levels in liver, % lower than in vehicle-treated mice (D409V/null mice; [7]): 60%
- glucosylceramide levels in liver, lung and spleen versus start of the study (D409V/null mice; [7]): had not increased
- glucosylceramide levels in lung, % lower than in vehicle-treated mice (D409V/null mice; [7]): 50%
- glucosylceramide levels in spleen, % lower than in vehicle-treated mice (D409V/null mice; [7]): 40%
- glucosylceramide levels in the liver, % of those in the controls (D409V/null mice; [7]): 60%
- glucosylceramide levels in the lung, % of those in the controls (D409V/null mice; [7]): 40%
- glucosylceramide levels in the spleen, % of those in the controls (D409V/null mice; [7]): 75%
- tolerability and safety profile [5]: well tolerated
- composite primary endpoint met (hemoglobin +0.5 g/dl or platelet count +15%) ([5]; 52 weeks): 19 of the 20
- mean (SD) change from baseline in chitotriosidase ([5]; Week 52): -49.9%
- mean (SD) change from baseline in liver volume (multiples of normal) ([5]; Week 52): -15.8%
- mean (SD) change from baseline in platelet count ([5]; Week 52): +43.6% (137.59%)
- mean (SD) change from baseline in spleen volume (multiples of normal) ([5]; Week 52): -40.2%
- related adverse events ([5]; all mild and transient): Seven related adverse events in 6 patients
- time after which plasma glucosylceramide levels normalized ([5]; all patients): 4 weeks
- accumulation in AUC, repeated versus single dose administration [6]: 2 fold
- accumulation in Cmax, repeated versus single dose administration [6]: 2 fold
- increase in AUC with concomitant paroxetine versus multiple-dose alone [6]: 9 fold
- increase in Cmax with concomitant paroxetine versus multiple-dose alone [6]: 7 fold
